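96-well plates; 48 h exposure; 5 concentrations. Endpoints by linear interpolation between flanking doses. Not reached: highest tested concentration assigned. Here, GI50 denotes the concentration required for 50% inhibition of growth. Definition used: TGI = concentration required for complete inhibition of growth.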
Assays:
Assay in all cases: NCI-60 cell line screen, 48 h
NCI-H522 lung = system: NCI-H522 lung
NCI-H226 lung = system: NCI-H226 lung
SW-620 colon = system: SW-620 colon
CCRF-CEM leukemia = system: CCRF-CEM leukemia
ACHN renal = system: ACHN renal
NCI/ADR-RES ovarian = system: NCI/ADR-RES ovarian
SF-295 CNS = system: SF-295 CNS
MDA-MB-435 = system: MDA-MB-435
SF-268 CNS = system: SF-268 CNS
HOP-62 NSCLC = system: HOP-62 NSCLC
SK-MEL-2 melanoma = system: SK-MEL-2 melanoma
SN12C renal = system: SN12C renal
MDA-MB-231 breast = system: MDA-MB-231 breast
A549 NSCLC = system: A549 NSCLC
UACC-257 melanoma = system: UACC-257 melanoma
COLO 205 colon = system: COLO 205 colon
HCT-116 colon = system: HCT-116 colon
OVCAR-5 ovarian = system: OVCAR-5 ovarian
EKVX NSCLC = system: EKVX NSCLC
HS 578T breast = system: HS 578T breast
UACC-62 melanoma = system: UACC-62 melanoma
786-0 renal = system: 786-0 renal
M14 melanoma = system: M14 melanoma
IGROV1 ovarian = system: IGROV1 ovarian
OVCAR-4 ovarian = system: OVCAR-4 ovarian
NCI-H460 lung = system: NCI-H460 lung
HOP-92 NSCLC = system: HOP-92 NSCLC
HCC-2998 colon = system: HCC-2998 colon
SF-539 CNS = system: SF-539 CNS
SK-MEL-5 melanoma = system: SK-MEL-5 melanoma
HT29 colon = system: HT29 colon
SR leukemia = system: SR leukemia
DU-145 prostate = system: DU-145 prostate
A498 renal = system: A498 renal
BT-549 breast = system: BT-549 breast
OVCAR-8 ovarian = system: OVCAR-8 ovarian
LOX IMVI melanoma = system: LOX IMVI melanoma
RXF 393 renal = system: RXF 393 renal
U251 CNS = system: U251 CNS
T-47D breast = system: T-47D breast
HCT-15 colon = system: HCT-15 colon
MCF7 breast = system: MCF7 breast
SK-OV-3 ovarian = system: SK-OV-3 ovarian
SK-MEL-28 melanoma = system: SK-MEL-28 melanoma
UO-31 renal = system: UO-31 renal
KM12 colon = system: KM12 colon
PC-3 prostate = system: PC-3 prostate
SNB-19 CNS = system: SNB-19 CNS
RPMI-8226 leukemia = system: RPMI-8226 leukemia
HL-60(TB) leukemia = system: HL-60(TB) leukemia
SNB-75 CNS = system: SNB-75 CNS
CAKI-1 renal = system: CAKI-1 renal
MALME-3M melanoma = system: MALME-3M melanoma
OVCAR-3 ovarian = system: OVCAR-3 ovarian
TK-10 renal = system: TK-10 renal
MOLT-4 leukemia = system: MOLT-4 leukemia
K-562 leukemia = system: K-562 leukemia

## COc1cc2c3c(n(CCCNCC4CC4)c(=O)c2cc1OC)-c1cc2c(cc1C3=O)OCO2
NCI-H522 lung
  GI50: 0.492 µM
  TGI: 2.1 µM
NCI-H226 lung
  GI50: 10.7 µM
  TGI: 28.7 µM
SW-620 colon
  GI50: 0.573 µM
  TGI: 2.19 µM
CCRF-CEM leukemia
  GI50: 0.082 µM
  TGI: 2.7 µM
ACHN renal
  GI50: 0.439 µM
  TGI: 1.57 µM
NCI/ADR-RES ovarian
  GI50: 1.07 µM
  TGI: 2.89 µM
SF-295 CNS
  GI50: 0.307 µM
  TGI: 1.53 µM
MDA-MB-435
  GI50: 1.29 µM
  TGI: 2.57 µM
SF-268 CNS
  GI50: 0.764 µM
  TGI: 2.49 µM
HOP-62 NSCLC
  GI50: 0.354 µM
  TGI: 1.6 µM
SK-MEL-2 melanoma
  GI50: 20.8 µM
  TGI: 35.2 µM
SN12C renal
  GI50: 1.37 µM
  TGI: 3.23 µM
MDA-MB-231 breast
  GI50: 1.44 µM
  TGI: 3.11 µM
A549 NSCLC
  GI50: 1.22 µM
  TGI: 2.57 µM
UACC-257 melanoma
  GI50: 13.6 µM
  TGI: 26.7 µM
COLO 205 colon
  GI50: 1.11 µM
  TGI: 4.21 µM
HCT-116 colon
  GI50: 1.14 µM
  TGI: 2.54 µM
OVCAR-5 ovarian
  GI50: 1.74 µM
  TGI: 3.29 µM
EKVX NSCLC
  GI50: 1.78 µM
  TGI: 3.48 µM
HS 578T breast
  GI50: 18.8 µM
  TGI: 59.6 µM
UACC-62 melanoma
  GI50: 2.86 µM
  TGI: 21.1 µM
786-0 renal
  GI50: 1.44 µM
  TGI: 2.81 µM
M14 melanoma
  GI50: 1.09 µM
  TGI: 2.38 µM
IGROV1 ovarian
  GI50: 1.16 µM
  TGI: 2.75 µM
OVCAR-4 ovarian
  GI50: 1.73 µM
  TGI: 3.35 µM
NCI-H460 lung
  GI50: 0.243 µM
  TGI: 1.46 µM
HOP-92 NSCLC
  GI50: 9.32 µM
  TGI: 21.9 µM
HCC-2998 colon
  GI50: 1.24 µM
  TGI: 2.55 µM
SF-539 CNS
  GI50: 0.763 µM
  TGI: 2.08 µM
SK-MEL-5 melanoma
  GI50: 10.1 µM
  TGI: 21.8 µM
HT29 colon
  GI50: 1.06 µM
  TGI: 2.32 µM
SR leukemia
  GI50: 0.0708 µM
  TGI: 1.23 µM
DU-145 prostate
  GI50: 0.759 µM
  TGI: 2.11 µM
A498 renal
  GI50: 12.6 µM
  TGI: 25.4 µM
BT-549 breast
  GI50: 12.7 µM
  TGI: 26.7 µM
OVCAR-8 ovarian
  GI50: 1.11 µM
  TGI: 2.66 µM
LOX IMVI melanoma
  GI50: 0.349 µM
  TGI: 1.89 µM
RXF 393 renal
  GI50: 1.49 µM
  TGI: 2.83 µM
U251 CNS
  GI50: 0.473 µM
  TGI: 1.89 µM
T-47D breast
  GI50: 7.13 µM
  TGI: 25.7 µM
HCT-15 colon
  GI50: 1.25 µM
  TGI: 2.8 µM
MCF7 breast
  GI50: 0.0953 µM
  TGI: 1.69 µM
SK-OV-3 ovarian
  GI50: 1.05 µM
  TGI: 7.63 µM
SK-MEL-28 melanoma
  GI50: 14.8 µM
  TGI: 28.8 µM
UO-31 renal
  GI50: 1.41 µM
  TGI: 2.79 µM
KM12 colon
  GI50: 1.37 µM
  TGI: 3.12 µM
PC-3 prostate
  GI50: 1.21 µM
  TGI: 2.84 µM
SNB-19 CNS
  GI50: 0.781 µM
  TGI: 2.47 µM
RPMI-8226 leukemia
  GI50: 0.636 µM
  TGI: 3.31 µM
HL-60(TB) leukemia
  GI50: 1.47 µM
  TGI: 3.25 µM
SNB-75 CNS
  GI50: 1.74 µM
  TGI: 19.6 µM
CAKI-1 renal
  GI50: 0.99 µM
  TGI: 2.15 µM
MALME-3M melanoma
  GI50: 1.49 µM
  TGI: 2.97 µM
OVCAR-3 ovarian
  GI50: 1.42 µM
  TGI: 2.84 µM
TK-10 renal
  GI50: 15.6 µM
  TGI: 29.2 µM
MOLT-4 leukemia
  GI50: 0.0385 µM
  TGI: 1.54 µM

## N/C(=N\c1nc2c(Br)cccc2s1)C(Br)Br
NCI-H522 lung
  GI50: 6.16 µM
  TGI: 21.7 µM
NCI-H226 lung
  GI50: 11.3 µM
  TGI: 38.6 µM
SW-620 colon
  GI50: 2.26 µM
  TGI: 11.2 µM
ACHN renal
  GI50: 2.98 µM
  TGI: 11.8 µM
NCI/ADR-RES ovarian
  GI50: 2.58 µM
  TGI: 9.81 µM
SF-295 CNS
  GI50: 10.6 µM
  TGI: 25.9 µM
MDA-MB-435
  GI50: 3.22 µM
  TGI: 13.7 µM
SF-268 CNS
  GI50: 4.67 µM
  TGI: 26.9 µM
HOP-62 NSCLC
  GI50: 10.5 µM
  TGI: 27.8 µM
SK-MEL-2 melanoma
  GI50: 15.4 µM
  TGI: 34.7 µM
SN12C renal
  GI50: 11.7 µM
  TGI: 29.8 µM
MDA-MB-231 breast
  GI50: 5.51 µM
  TGI: 28 µM
A549 NSCLC
  GI50: 7.76 µM
  TGI: 21.9 µM
UACC-257 melanoma
  GI50: 13.5 µM
  TGI: 28 µM
COLO 205 colon
  GI50: 3.49 µM
  TGI: 13.9 µM
HCT-116 colon
  GI50: 2.27 µM
  TGI: 16.8 µM
OVCAR-5 ovarian
  GI50: 12 µM
  TGI: 25.8 µM
EKVX NSCLC
  GI50: 11.4 µM
  TGI: 28 µM
HS 578T breast
  GI50: 7.24 µM
  TGI: > 100 µM
UACC-62 melanoma
  GI50: 6.63 µM
  TGI: 24.3 µM
786-0 renal
  GI50: 13.1 µM
  TGI: 35.2 µM
M14 melanoma
  GI50: 10.4 µM
  TGI: 28.1 µM
IGROV1 ovarian
  GI50: 10.4 µM
  TGI: 31.6 µM
OVCAR-4 ovarian
  GI50: 6.21 µM
  TGI: 30.6 µM
NCI-H460 lung
  GI50: 2.55 µM
  TGI: 11.5 µM
K-562 leukemia
  GI50: 2.66 µM
  TGI: 52.7 µM
HOP-92 NSCLC
  GI50: 6.07 µM
  TGI: 29.4 µM
HCC-2998 colon
  GI50: 3.62 µM
  TGI: 14.3 µM
SF-539 CNS
  GI50: 3.7 µM
  TGI: 15 µM
SK-MEL-5 melanoma
  GI50: 17.5 µM
  TGI: 32 µM
HT29 colon
  GI50: 2.91 µM
  TGI: 12.8 µM
SR leukemia
  GI50: 4.68 µM
  TGI: 31 µM
DU-145 prostate
  GI50: 3.84 µM
  TGI: 16 µM
A498 renal
  GI50: 21.5 µM
  TGI: 50.6 µM
BT-549 breast
  GI50: 11.2 µM
  TGI: 29.9 µM
OVCAR-8 ovarian
  GI50: 8.18 µM
  TGI: 24.1 µM
LOX IMVI melanoma
  GI50: 0.307 µM
  TGI: 1.29 µM
RXF 393 renal
  GI50: 2.74 µM
  TGI: 9.95 µM
U251 CNS
  GI50: 2.83 µM
  TGI: 12.1 µM
T-47D breast
  GI50: 10.3 µM
  TGI: 36.1 µM
HCT-15 colon
  GI50: 2.57 µM
  TGI: 11.5 µM
MCF7 breast
  GI50: 2.25 µM
  TGI: 11.3 µM
SK-OV-3 ovarian
  GI50: 10.8 µM
  TGI: 35.4 µM
SK-MEL-28 melanoma
  GI50: 11.1 µM
  TGI: 23.3 µM
UO-31 renal
  GI50: 5.69 µM
  TGI: 20.2 µM
KM12 colon
  GI50: 4.29 µM
  TGI: 22.4 µM
PC-3 prostate
  GI50: 8.68 µM
  TGI: 26.1 µM
SNB-19 CNS
  GI50: 10.4 µM
  TGI: 27.8 µM
RPMI-8226 leukemia
  GI50: 2.97 µM
  TGI: 16.4 µM
HL-60(TB) leukemia
  GI50: 7.38 µM
  TGI: 57.5 µM
SNB-75 CNS
  GI50: 10.2 µM
  TGI: 22.1 µM
CAKI-1 renal
  GI50: 2.1 µM
  TGI: 8.98 µM
MALME-3M melanoma
  GI50: 8.53 µM
  TGI: 24.4 µM
OVCAR-3 ovarian
  GI50: 4.19 µM
  TGI: 16.6 µM
TK-10 renal
  GI50: 15.9 µM
  TGI: 32.2 µM
MOLT-4 leukemia
  GI50: 3.9 µM
  TGI: 27.3 µM

Reference: PubChem BioAssay (NCI)
